# Assays:
# Format in all cases: in vivo
# [1] = system: upland rice (Oryza sp., var.Tebonnet, RICE); assay: Pre-emerge greenhouse test, crop damage rating; details: 14 days after application, rating scale 0-100
# Summary of the method: (§1)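 Visual 0–100 injury rating (100 = all plants dead) taken 14 days after treatment. Rates of 125–1000 g ai/ha in acetone, 187 l/ha, were sprayed onto soil one day post-sowing; pots were surface-watered to incorporate, then bottom-watered.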
# [2] = system: field corn (Zea mays L., var. Dekalb 535, CORN); assay: Pre-emerge greenhouse test, crop damage rating; details: 14 days after application, rating scale 0-100
# Summary of the method: as §1
# [3] = system: ivyleaf morningglory (Ipomoea hederacea, IPOHE); assay: Post-emerge greenhouse herbicide test, phytotoxicity rating; details: 14 days after application
# Summary of the method: (§2)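 Scores use a 0 (no damage) to 100 (complete kill) scale, taken 14 days after a foliar spray. Acetone solutions with 0.25% v/v non-ionic surfactant were applied by track sprayer at 187 l/ha and 63-1000 g ai/ha to bottom-watered 2-3 leaf plants.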
# [4] = system: sicklepod (Cassia obtusifolia, CASOB); assay: as above; details: 14 days after application
# Summary of the method: as §2
# [5] = system: large crabgrass (Digitaria sanguinalis, DIGSA); assay: as above; details: 14 days after application
# Summary of the method: as §2
# [6] = system: Johnsongrass (Sorghum halepense, SORHA); assay: as above; details: 14 days after application
# Summary of the method: as §2
# [7] = system: redroot pigweed (Amaranthus retroflexus, AMARE); assay: as above; details: 14 days after application
# Summary of the method: as §2
# [8] = system: green foxtail (Setaria viridis, SETVI); assay: as above; details: 14 days after application
# Summary of the method: as §2
# [9] = system: velvetleaf (Abutilon theophrasti, ABUTH); assay: as above; details: 14 days after application
# Summary of the method: as §2
# [10] = system: lambsquarters (Chenopodium album, CHEAL); assay: as above; details: 14 days after application
# Summary of the method: as §2
# [11] = system: barnyardgrass (Echinochloa crusgalli, ECHCG); assay: as above; details: 14 days after application
# Summary of the method: as §2
# [12] = system: common ragweed (Ambrosia artemisiifolia L., AMBEL); assay: Pre-emerge greenhouse herbicide test, phytotoxicity rating; details: 14 days after application, rating scale 0-100
# Summary of the method: as §1
# [13] = system: ivyleaf morningglory (Ipomoea hederacea, IPOHE); assay: as above; details: 14 days after application, rating scale 0-100
# Summary of the method: as §1
# [14] = system: sicklepod (Cassia obtusifolia, CASOB); assay: as above; details: 14 days after application, rating scale 0-100
# Summary of the method: as §1
# [15] = system: large crabgrass (Digitaria sanguinalis, DIGSA); assay: as above; details: 14 days after application, rating scale 0-100
# Summary of the method: as §1
# [16] = system: Johnsongrass (Sorghum halepense, SORHA); assay: as above; details: 14 days after application, rating scale 0-100
# Summary of the method: as §1
# [17] = system: redroot pigweed (Amaranthus retroflexus, AMARE); assay: as above; details: 14 days after application, rating scale 0-100
# Summary of the method: as §1
# [18] = system: green foxtail (Setaria viridis, SETVI); assay: as above; details: 14 days after application, rating scale 0-100
# Summary of the method: as §1
# [19] = system: velvetleaf (Abutilon theophrasti, ABUTH); assay: as above; details: 14 days after application, rating scale 0-100
# Summary of the method: as §1
# [20] = system: lambsquarters (Chenopodium album, CHEAL); assay: as above; details: 14 days after application, rating scale 0-100
# Summary of the method: as §1
# [21] = system: barnyardgrass (Echinochloa crusgalli, ECHCG); assay: as above; details: 14 days after application, rating scale 0-100
# Summary of the method: as §1
# [22] = system: soybean (Glycine max L., var. Pella 86, SOY); assay: Post-emerge greenhouse test, crop damage rating; details: 14 days after application
# Summary of the method: as §2
# [23] = system: soybean (Glycine max L., var. Pella 86, SOY); assay: Pre-emerge greenhouse test, crop damage rating; details: 14 days after application, rating scale 0-100
# Summary of the method: as §1
# [24] = system: upland rice (Oryza sp., var.Tebonnet, RICE); assay: Post-emerge greenhouse test, crop damage rating; details: 14 days after application
# Summary of the method: as §2
# [25] = system: field corn (Zea mays L., var. Dekalb 535, CORN); assay: Post-emerge greenhouse test, crop damage rating; details: 14 days after application
# Summary of the method: as §2
# [26] = system: common ragweed (Ambrosia artemisiifolia L., AMBEL); assay: Post-emerge greenhouse herbicide test, phytotoxicity rating; details: 14 days after application
# Summary of the method: as §2
smiles,measurement,setting,value
Cn1nc(-c2cc(Oc3ncccn3)c(Cl)cc2F)c(Cl)c1C(F)(F)F [Compound 1-7],crop damage rating RICE,[1]; 125 g ai/ha,70
same,crop damage rating RICE,[1]; 500 g ai/ha,90
same,crop damage rating CORN,[2]; 125 g ai/ha,40
same,crop damage rating CORN,[2]; 500 g ai/ha,70
same,IPOHE phytotoxicity rating (0-100),[3]; 63 g al/ha,100
same,IPOHE phytotoxicity rating (0-100),[3]; 500 g al/ha,100
same,CASOB phytotoxicity rating (0-100),[4]; 500 g al/ha,100
same,DIGSA phytotoxicity rating (0-100),[5]; 63 g al/ha,90
same,DIGSA phytotoxicity rating (0-100),[5]; 500 g al/ha,100
same,SORHA phytotoxicity rating (0-100),[6]; 63 g al/ha,90
same,SORHA phytotoxicity rating (0-100),[6]; 500 g al/ha,100
same,AMARE phytotoxicity rating (0-100),[7]; 63 g al/ha,100
same,AMARE phytotoxicity rating (0-100),[7]; 500 g al/ha,100
same,SETVI phytotoxicity rating (0-100),[8]; 63 g al/ha,100
same,SETVI phytotoxicity rating (0-100),[8]; 500 g al/ha,100
same,ABUTH phytotoxicity rating (0-100),[9]; 63 g al/ha,100
same,ABUTH phytotoxicity rating (0-100),[9]; 500 g al/ha,100
same,CHEAL phytotoxicity rating (0-100),[10]; 63 g al/ha,100
same,CHEAL phytotoxicity rating (0-100),[10]; 500 g al/ha,100
same,ECHCG phytotoxicity rating (0-100),[11]; 63 g al/ha,100
same,ECHCG phytotoxicity rating (0-100),[11]; 500 g al/ha,100
same,phytotoxicity rating AMBEL,[12]; 125 g ai/ha,100
same,phytotoxicity rating AMBEL,[12]; 500 g ai/ha,100
same,phytotoxicity rating IPOHE,[13]; 125 g ai/ha,40
same,phytotoxicity rating IPOHE,[13]; 500 g ai/ha,70
same,phytotoxicity rating CASOB,[14]; 125 g ai/ha,95
same,phytotoxicity rating CASOB,[14]; 500 g ai/ha,90
same,phytotoxicity rating DIGSA,[15]; 125 g ai/ha,100
same,phytotoxicity rating DIGSA,[15]; 500 g ai/ha,100
same,phytotoxicity rating SORHA,[16]; 125 g ai/ha,100
same,phytotoxicity rating SORHA,[16]; 500 g ai/ha,100
same,phytotoxicity rating AMARE,[17]; 125 g ai/ha,100
same,phytotoxicity rating AMARE,[17]; 500 g ai/ha,100
same,phytotoxicity rating SETVI,[18]; 125 g ai/ha,100
same,phytotoxicity rating SETVI,[18]; 500 g ai/ha,100
same,phytotoxicity rating ABUTH,[19]; 125 g ai/ha,90
same,phytotoxicity rating ABUTH,[19]; 500 g ai/ha,99
same,phytotoxicity rating CHEAL,[20]; 125 g ai/ha,100
same,phytotoxicity rating CHEAL,[20]; 500 g ai/ha,100
same,phytotoxicity rating ECHCG,[21]; 125 g ai/ha,100
same,phytotoxicity rating ECHCG,[21]; 500 g ai/ha,100
same,SOY crop damage rating (0-100),[22]; 63 g al/ha,100
same,SOY crop damage rating (0-100),[22]; 500 g al/ha,100
same,crop damage rating SOY,[23]; 125 g ai/ha,0
same,crop damage rating SOY,[23]; 500 g ai/ha,0
same,RICE crop damage rating (0-100),[24]; 63 g al/ha,100
same,RICE crop damage rating (0-100),[24]; 500 g al/ha,80
same,CORN crop damage rating (0-100),[25]; 63 g al/ha,90
same,CORN crop damage rating (0-100),[25]; 500 g al/ha,70
same,AMBEL phytotoxicity rating (0-100),[26]; 63 g al/ha,95
same,AMBEL phytotoxicity rating (0-100),[26]; 500 g al/ha,100
"Cc1nn(-c2cc(Oc3ncccn3)c(Cl)cc2F)c(=O)n1C(F)F [Compound 3-1, 1-[4-chloro-2-fluoro-5-(2-pyrimidyloxy)phenyl]-4-difluoromethyl-3-methyl-1,4-dihydro-1,2,4-triazolin-5-one]",crop damage rating RICE,[1]; 125 g ai/ha,99
same,crop damage rating RICE,[1]; 500 g ai/ha,100
same,crop damage rating CORN,[2]; 125 g ai/ha,90
same,crop damage rating CORN,[2]; 500 g ai/ha,100
same,IPOHE phytotoxicity rating (0-100),[3]; 63 g al/ha,100
same,IPOHE phytotoxicity rating (0-100),[3]; 500 g al/ha,100
same,CASOB phytotoxicity rating (0-100),[4]; 63 g al/ha,90
same,CASOB phytotoxicity rating (0-100),[4]; 500 g al/ha,100
same,DIGSA phytotoxicity rating (0-100),[5]; 63 g al/ha,80
same,DIGSA phytotoxicity rating (0-100),[5]; 500 g al/ha,100
same,SORHA phytotoxicity rating (0-100),[6]; 63 g al/ha,80
same,SORHA phytotoxicity rating (0-100),[6]; 500 g al/ha,100
same,AMARE phytotoxicity rating (0-100),[7]; 63 g al/ha,95
same,AMARE phytotoxicity rating (0-100),[7]; 500 g al/ha,100
same,SETVI phytotoxicity rating (0-100),[8]; 63 g al/ha,95
same,SETVI phytotoxicity rating (0-100),[8]; 500 g al/ha,100
same,ABUTH phytotoxicity rating (0-100),[9]; 63 g al/ha,100
same,ABUTH phytotoxicity rating (0-100),[9]; 500 g al/ha,100
same,CHEAL phytotoxicity rating (0-100),[10]; 63 g al/ha,95
same,CHEAL phytotoxicity rating (0-100),[10]; 500 g al/ha,100
same,ECHCG phytotoxicity rating (0-100),[11]; 63 g al/ha,70
same,ECHCG phytotoxicity rating (0-100),[11]; 500 g al/ha,100
same,phytotoxicity rating AMBEL,[12]; 125 g ai/ha,100
same,phytotoxicity rating AMBEL,[12]; 500 g ai/ha,100
same,phytotoxicity rating IPOHE,[13]; 125 g ai/ha,100
same,phytotoxicity rating IPOHE,[13]; 500 g ai/ha,100
same,phytotoxicity rating CASOB,[14]; 125 g ai/ha,100
same,phytotoxicity rating CASOB,[14]; 500 g ai/ha,100
same,phytotoxicity rating DIGSA,[15]; 125 g ai/ha,100
same,phytotoxicity rating DIGSA,[15]; 500 g ai/ha,100
same,phytotoxicity rating SORHA,[16]; 125 g ai/ha,100
same,phytotoxicity rating SORHA,[16]; 500 g ai/ha,100
same,phytotoxicity rating AMARE,[17]; 125 g ai/ha,100
same,phytotoxicity rating AMARE,[17]; 500 g ai/ha,100
same,phytotoxicity rating SETVI,[18]; 125 g ai/ha,100
same,phytotoxicity rating SETVI,[18]; 500 g ai/ha,100
same,phytotoxicity rating ABUTH,[19]; 125 g ai/ha,100
same,phytotoxicity rating ABUTH,[19]; 500 g ai/ha,100
same,phytotoxicity rating CHEAL,[20]; 125 g ai/ha,100
same,phytotoxicity rating CHEAL,[20]; 500 g ai/ha,100
same,phytotoxicity rating ECHCG,[21]; 125 g ai/ha,100
same,phytotoxicity rating ECHCG,[21]; 500 g ai/ha,100
same,SOY crop damage rating (0-100),[22]; 63 g al/ha,100
same,SOY crop damage rating (0-100),[22]; 500 g al/ha,100
same,crop damage rating SOY,[23]; 125 g ai/ha,90
same,crop damage rating SOY,[23]; 500 g ai/ha,100
same,RICE crop damage rating (0-100),[24]; 63 g al/ha,70
same,RICE crop damage rating (0-100),[24]; 500 g al/ha,100
same,CORN crop damage rating (0-100),[25]; 63 g al/ha,25
same,CORN crop damage rating (0-100),[25]; 500 g al/ha,100
same,AMBEL phytotoxicity rating (0-100),[26]; 63 g al/ha,70
same,AMBEL phytotoxicity rating (0-100),[26]; 500 g al/ha,100
